Data as given in US20250154126A1, “CRYSTALLINE FORM OF SULFUR-CONTAINING ISOINDOLINE DERIVATIVE” (JIANGSU HENGRUI PHARMACEUTICALS CO., LTD., priority 2022, published 2025).

Legend:
[1] = Hygroscopicity study of crystal forms (dynamic vapour sorption, 25° C.); format: physicochemical; settings: for Crystal form after hygroscopicity test: two cycles
Text: According to the “9103 Guideline for Hygroscopicity for Pharmaceuticals” in Part IV of the 2015 edition of the Chinese Pharmacopoeia, descriptions of hygroscopic characteristics and definitions of hygroscopic weight gain are as follows; • Deliquescent: Absorbs sufficient moisture to form a liquid; • Extremely hygroscopic: Hygroscopic weight gain is no less than 15%; • Hygroscopic: Hygroscopic weight gain is less than 15% but no less than 2%; • Slightly hygroscopic: Hygroscopic weight gain is less than 2% but no less than 0.2%; • Non-hygroscopic or nearly non-hygroscopic: Hygroscopic weight gain is less than 0.2%.
Compound of Formula (I) (Oct. 15, 2021, Nanjing) 03881 Using the Surface Measurement Systems advantage 2, at a temperature of 25° C., and starting at a humidity of 50%, the humidity range was examined from […] to 95%, with increments of 10%. The criterion for evaluation was that the mass change dM/dT at each gradient was less than 0.002%, TMAX was 360 min, and the process was cycled twice.

[2] = Long-term/accelerated stability of crystal forms (25° C. 60% RH and 40° C. 75% RH); format: physicochemical; settings: for physical and chemical stability, long-term accelerated conditions: 25° C. 60% RH and 40° C. 75% RH, six months
Method: The crystal forms D, E, Q, and U of the compound of formula (I) were respectively placed under conditions of 25° C. with 60% RH and 40° C. with 75% RH to evaluate their stability.

[3] = Influencing factor stability of crystal forms (light, high temperature, high humidity, 30 days); format: physicochemical; settings: for change in purity under 60° C. and light: 60° C. and light (4500 Lux); for change in purity under 60° C. and light / physicochemical stability under high humidity: open; for physicochemical stability under high humidity: high humidity conditions of 75% and 92.5%; for crystal form after influencing factor experiments: light, high temperature, high humidity
Method: Each crystal form was spread out in an open exposure setup, and the stability of the samples under conditions of light (4500 Lux), high temperature (40° C., 60° C.), and high humidity (RH 75 RH 92.5%) was examined separately. The sampling inspection period was 30 days.

[4] = system: NCI-H929 xenograft tumor; assay: Pharmacodynamic test: NCI-H929 xenograft tumor in CB-17 SCID mice; format: in vivo; settings: for Number of remaining animals/group: 1 mg/kg qd/11 d, oral
Method: This experiment was performed to evaluate the inhibition effect of the compound of Example 1 and the control example CC-92480 on the growth of human multiple myeloma cell NCI-H929 xenograft tumor in CB-17 SCID mice.
Solutions of the compound of Example 1 and the control example CC-92480 were prepared with 5% DMSO+20% PEG400+70% (10% TPGS)+5% (1% HPMC K100LV).
Thirty CB-17 SCID female mice, purchased from Beijing Vital River Laboratory Animal Technology Co., Ltd. (certificate No. 20170011006049, SCXK (Shanghai) 2017-0011), weighing about 19 g at the time of purchase, were bred at 5 mice/cage (in a 12/12 hour light/dark cycle, at a constant temperature of 23±1° C. and humidity of 50%-60%) and had free access to food and water.
After adaptive feeding, the CB-17 SCID mice were grouped as follows:
NCI-H929 cells in a logarithmic growth phase were inoculated subcutaneously into the right flank of 30 female CB-17 SCID mice at 5×10^6 cells/mouse/100 μL (containing […] of Matrigel). After 10 days, when the tumor volume of the tumor-bearing mice reached about 200 mm^3, the mice were randomly divided into 3 groups according to the tumor volume and body weight: vehicle control group, CC-92480-1 mpk, compound of Example 1-1 mpk, with […]. The day of grouping was set as Day 0 (DO), and intragastric administration was performed once a day for 11 days (Table 2). For the tumor-bearing mice, the tumor volume was measured with a vernier caliper and the body weight was measured with a balance twice a week, and the data were recorded.
The tumor volume (V) was calculated as follows: V=1/2×a×b^2, where a and b represent length and width, respectively.
The relative tumor proliferation rate T/C (%)=(T−T0)/(C−C0)×100(%), where T and C are the tumor volume of animals at the end of the experiment in the treatment group and control group, respectively; T0 and C0 are the tumor volume of animals at the beginning of the experiment in the treatment group and control group, respectively. […]

[5] = 92.5% RH, 7 days, open exposure
[6] = 92.5% RH, 30 days, open exposure
[7] = light 4500 Lux, 30 days, open exposure

N#Cc1ccc(N2CCC(Sc3ccc(COc4cccc5c4CN([C@H]4CCC(=O)NC4=O)C5=O)cn3)CC2)c(F)c1 [Crystal form U, (S)-4-(4-((5-(((2-(2,6-dioxopiperidin-3-yl)-1-oxoisoindolin-4-yl)oxy)methyl)pyridin-2-yl)thio)piperidin-1-yl)-3-fluorobenzonitrile]
Hygroscopic weight change 0.0% RH-95.0% RH [1]: 2.06% | Hygroscopic weight change 20% RH-80% RH [1]: 1.03% | Hygroscopicity class (20% RH-80% RH) [1]: (slightly hygroscopic) | Crystal form after hygroscopicity test [1]: Untransformed | physical and chemical stability, long-term accelerated conditions [2]: good physical and chemical stability | Purity % 1 month ([2]; 25° C., 60% RH): 99.7% | Purity % 2 months ([2]; 25° C., 60% RH): 99.6% | Purity % 3 months ([2]; 25° C., 60% RH): 99.6% | Purity % 1 month ([2]; 40° C., 75% RH): 99.7% | Purity % 2 months ([2]; 40° C., 75% RH): 99.6% | Purity % 3 months ([2]; 40° C., 75% RH): 99.6% | Purity % 6 months ([2]; 40° C., 75% RH): 99.5% | Purity % Onset [2]: 99.7% | Color and character ([3]; 40° C., 7 days, open exposure): White solid | Purity % ([3]; 40° C., 7 days, open exposure): 99.5% | Color and character ([3]; 40° C., 14 days, open exposure): White solid | Purity % ([3]; 40° C., 14 days, open exposure, listed as Free crystal form U): 99.3% | Color and character ([3]; 40° C., 30 days, open exposure): White solid | Purity % ([3]; 40° C., 30 days, open exposure, listed as Free crystal form U): 98.8% | change in purity under 60° C. and light ([3]; 30 days): slight decrease in purity | Color and character ([3]; 60° C., 7 days, open exposure): White solid | Purity % ([3]; 60° C., 7 days, open exposure, listed as Free crystal form U): 98.9% | Color and character ([3]; 60° C., 14 days, open exposure): White solid | Purity % ([3]; 60° C., 14 days, open exposure, listed as Free crystal form U): 98.5% | Color and character ([3]; 60° C., 30 days, open exposure): White solid | Purity % ([3]; 60° C., 30 days, open exposure, listed as Free crystal form U): 97.5% | Color and character ([3]; 75% RH, 7 days, open exposure): White solid | Purity % ([3]; 75% RH, 7 days, open exposure): 99.6% | Color and character ([3]; 75% RH, 14 days, open exposure): White solid | Purity % ([3]; 75% RH, 14 days, open exposure, listed as Free crystal form U): 99.7% | Color and character ([3]; 75% RH, 30 days, open exposure): White solid | Purity % ([3]; 75% RH, 30 days, open exposure, listed as Free crystal form U): 99.6% | Color and character [3, 5]: White solid | Purity % [3, 5]: 99.7% | Color and character ([3]; 92.5% RH, 14 days, open exposure): White solid | Purity % ([3]; 92.5% RH, 14 days, open exposure, listed as Free crystal form U): 99.7% | Color and character [3, 6]: White solid | Purity % ([3]; 92.5% RH, 30 days, open exposure, listed as Free crystal form U): 99.6% | Color and character ([3]; Onset, 0 days): White solid | Purity % ([3]; Onset, 0 days, listed as Free crystal form U): 99.7% | physicochemical stability under high humidity ([3]; 30 days): good physicochemical stability | Color and character ([3]; light 4500 Lux, 7 days, open exposure): White solid | Purity % ([3]; light 4500 Lux, 7 days, open exposure, listed as Free crystal form U): 99.3% | Color and character ([3]; light 4500 Lux, 14 days, open exposure): White solid | Purity % ([3]; light 4500 Lux, 14 days, open exposure, listed as Free crystal form U): 99.3% | Color and character [3, 7]: White solid | Purity % ([3]; light 4500 Lux, 30 days, open exposure, listed as Free crystal form U): 98.8% | crystal form after influencing factor experiments ([3]; 30 days): remain unchanged

N#Cc1ccc(N2CCN(Cc3ccc(COc4cccc5c4CN([C@H]4CCC(=O)NC4=O)C5=O)cc3)CC2)c(F)c1 [CC-92480, reference compound]
Number of remaining animals/group [4]: 7/7

N#Cc1ccc(N2CCC(Sc3ccc(COc4cccc5c4CN([C@H]4CCC(=O)NC4=O)C5=O)cn3)CC2)c(F)c1 [Crystal form D, (S)-4-(4-((5-(((2-(2,6-dioxopiperidin-3-yl)-1-oxoisoindolin-4-yl)oxy)methyl)pyridin-2-yl)thio)piperidin-1-yl)-3-fluorobenzonitrile]
Hygroscopic weight change 0.0% RH-95.0% RH [1]: 2.24% | Hygroscopic weight change 20% RH-80% RH [1]: 1.26% | Hygroscopicity class (20% RH-80% RH) [1]: (slightly hygroscopic) | Crystal form after hygroscopicity test [1]: Untransformed | physical and chemical stability, long-term accelerated conditions [2]: good physical and chemical stability | Purity % 1 month ([2]; 25° C., 60% RH): 97.8% | Purity % 2 months ([2]; 25° C., 60% RH): 97.8% | Purity % 3 months ([2]; 25° C., 60% RH): 97.8% | Purity % 1 month ([2]; 40° C., 75% RH): 97.8% | Purity % 2 months ([2]; 40° C., 75% RH): 97.8% | Purity % 3 months ([2]; 40° C., 75% RH): 97.7% | Purity % 6 months ([2]; 40° C., 75% RH): 97.6% | Purity % Onset [2]: 97.9% | Color and character ([3]; 40° C., 9 days, open exposure): White solid | Purity % ([3]; 40° C., 9 days, open exposure, listed as Free crystal form D): 97.3% | Color and character ([3]; 40° C., 15 days, open exposure): White solid | Purity % ([3]; 40° C., 15 days, open exposure, listed as Free crystal form D): 96.7% | Color and character ([3]; 40° C., 30 days, open exposure): White solid | Purity % ([3]; 40° C., 30 days, open exposure, listed as Free crystal form D): 95.8% | change in purity under 60° C. and light ([3]; 30 days): slight decrease in purity | Color and character ([3]; 60° C., 9 days, open exposure): White solid | Purity % ([3]; 60° C., 9 days, open exposure, listed as Free crystal form D): 96.6% | Color and character ([3]; 60° C., 15 days, open exposure): White solid | Purity % ([3]; 60° C., 15 days, open exposure, listed as Free crystal form D): 95.8% | Color and character ([3]; 60° C., 30 days, open exposure): White solid | Purity % ([3]; 60° C., 30 days, open exposure, listed as Free crystal form D): 93.9% | Color and character ([3]; 75% RH, 9 days, open exposure): White solid | Purity % ([3]; 75% RH, 9 days, open exposure, listed as Free crystal form D): 97.8% | Color and character ([3]; 75% RH, 15 days, open exposure): White solid | Purity % ([3]; 75% RH, 15 days, open exposure, listed as Free crystal form D): 97.7% | Color and character ([3]; 75% RH, 30 days, open exposure): White solid | Purity % ([3]; 75% RH, 30 days, open exposure, listed as Free crystal form D): 97.9% | Color and character ([3]; 92.5% RH, 9 days, open exposure): White solid | Purity % ([3]; 92.5% RH, 9 days, open exposure, listed as Free crystal form D): 97.8% | Color and character ([3]; 92.5% RH, 15 days, open exposure): White solid | Purity % ([3]; 92.5% RH, 15 days, open exposure, listed as Free crystal form D): 97.9% | Color and character [3, 6]: White solid | Purity % ([3]; 92.5% RH, 30 days, open exposure, listed as Free crystal form D): 97.8% | Color and character ([3]; Onset, 0 days): White solid | Purity % ([3]; Onset, 0 days, listed as Free crystal form D): 97.9% | physicochemical stability under high humidity ([3]; 30 days): good physicochemical stability | Color and character ([3]; light 4500 Lux, 9 days, open exposure): White solid | Purity % ([3]; light 4500 Lux, 9 days, open exposure, listed as Free crystal form D): 97.3% | Color and character ([3]; light 4500 Lux, 15 days, open exposure): White solid | Purity % ([3]; light 4500 Lux, 15 days, open exposure, listed as Free crystal form D): 96.8% | Color and character [3, 7]: White solid | Purity % ([3]; light 4500 Lux, 30 days, open exposure, listed as Free crystal form D): 95.4% | crystal form after influencing factor experiments ([3]; 30 days): remain unchanged

N#Cc1ccc(N2CCC(Sc3ccc(COc4cccc5c4CN([C@H]4CCC(=O)NC4=O)C5=O)cn3)CC2)c(F)c1 [Example 1, (S)-4-(4-((5-(((2-(2,6-dioxopiperidin-3-yl)-1-oxoisoindolin-4-yl)oxy)methyl)pyridin-2-yl)thio)piperidin-1-yl)-3-fluorobenzonitrile]
influence on the body weight of mice ([4]; 1 mg/kg qd, 11 days, CB-17 SCID mice): no influence | Number of remaining animals/group [4]: 7/7
